US20060269579A1, “Compositions for treating osteoarthritis” (Musculoskeletal Research LLC, priority 2005, published 2006)

Columns and labels:
connexin 43 = connexin 43 (Homo sapiens, UniProt P17302); conditions: Leybaert et al. 2003; cited from earlier work
synovial lining cells = conditions: human
[1] = tested on: effect of IL-1 on synovial cells; conditions: cited from earlier work

Sequence of connexin 43 (P17302 2-382 limits assumed): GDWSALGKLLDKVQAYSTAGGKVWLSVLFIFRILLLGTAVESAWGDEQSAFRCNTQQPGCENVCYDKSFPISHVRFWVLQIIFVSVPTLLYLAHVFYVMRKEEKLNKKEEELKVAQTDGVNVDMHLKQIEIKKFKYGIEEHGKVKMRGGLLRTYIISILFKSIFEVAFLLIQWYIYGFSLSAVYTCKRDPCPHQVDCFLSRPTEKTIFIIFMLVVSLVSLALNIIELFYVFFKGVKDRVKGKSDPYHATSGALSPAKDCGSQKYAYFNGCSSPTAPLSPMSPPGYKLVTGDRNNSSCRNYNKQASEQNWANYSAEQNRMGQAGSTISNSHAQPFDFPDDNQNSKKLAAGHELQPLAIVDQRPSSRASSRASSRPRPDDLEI

Compound	block of connexin 43 (connexin 43)	concentration in compositions that must not be exceeded (synovial lining cells) [µg/mL]	total dose that must not be exceeded (synovial lining cells) [mg]	interference with the effect of IL-1 on synovial cells [1]
SRPTEKTIFII [undecapeptide, connexin 43 residue numbers 204-214, mimetic peptide]	able to block connexin 43			
COC(=O)C1=C(C)NC(C)=C(C(=O)OC)C1c1ccccc1[N+](=O)[O-] [nifedipine]		≤ 2000	≤ 2.0	
COc1ccc(CCN(C)CCCC(C#N)(c2ccc(OC)c(OC)c2)C(C)C)cc1OC (stereo not drawn) [verapamil]		≤ 2000	≤ 2.0	capable of interfering with the effect of IL-1 on synovial cells
CCN(CC)CCNC(=O)c1ccc(N)cc1 [procainamide]		≤ 2000	≤ 2.0	
VCYDKSFPISHVR [synthetic tridecapeptide, connexin 43 residue numbers 63-75, mimetic peptide]	able to block connexin 43			
